# Like-named read-outs stand apart in the source and are kept apart here.
# Experiments:
# A-549 = assay: Inhibition of cells growth by colorimetric assay (SRB), A-549; assay type: cell-based; conditions: for GI50 / LC50 (concentration for 50% cell killing): Homo sapiens, A549, 48 h
# In short: (§1)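 48 h SRB cytotoxicity assay; compound range 10–10^−8 μg/ml; seeding 5×10^3 cells/well, 18 h pre-attachment; OD 490 nm; GI, TGI, LC from triplicate means ± SD.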
# SK-MEL-28 = assay: Inhibition of cells growth by colorimetric assay (SRB), SK-MEL-28; assay type: cell-based; conditions: for GI50 / CC50: Homo sapiens, SK-MEL-28, 48 h
# In short: as §1
# HT-29 = assay: Inhibition of cells growth by colorimetric assay (SRB), HT-29; assay type: cell-based; conditions: for GI50 / LC50 (concentration for 50% cell killing): Homo sapiens, HT-29, 48 h
# In short: as §1
# SW620 = assay: Inhibition of cells growth by colorimetric assay (SRB), SW620; assay type: cell-based; conditions: for LC50 / GI50: Homo sapiens; for LC50: SW-620, 48 h; for GI50 / TGI SW-620: SW-620
# Description: (§2) 2°.—Inhibition of Cells Growth by Colorimetric Assay.
# (§3) A colorimetric type of assay, using sulforhodamine B (SRB) reaction has been adapted for a quantitative measurement of cell growth and viability [following the technique described by Philip Skehan, et al. (1990), New colorimetric cytotoxicity assay for anticancer drug screening, J. Natl. Cancer Inst., 82:1107-1112]
# (§4) This form of the assay employs 96 well cell culture microplates of 9 mm diameter (Faircloth, 1988; Mosmann, 1983). Most of the cell lines are obtained from American Type Culture Collection (ATCC) derived from different human cancer types.
# (§5) Cells are maintained in RPMI 1640 10% FBS, supplemented with 0.1 g/l penicillin and 0.1 g/l streptomycin sulfate and then incubated at 37° C., 5% CO2 and 98% humidity. For the experiments, cells were harvested from subconfluent cultures using trypsin and resuspended in fresh medium before plating.
# (§6) Cells are seeded in 96 well microtiter plates, at 5×10^3 cells per well in aliquots of 195 μl medium, and they are allowed to attach to the plate surface by growing in drug free medium for 18 hours. Afterward, samples are added in aliquots of 5 μl in a ranging from 10 to 10^−8 μg/ml, dissolved in DMSO/EtOH/PBS (0.5:0.5:99). After 48 hours exposure, the antitumor effect are measured by the SRB methodology: cells are fixed by adding 50 μl of cold 50% (wt/vol) trichloroacetic acid (TCA) and incubating for 60 minutes at 4° C. Plates are washed with deionized water and dried. One hundred μl of SRB solution (0.4% wt/vol in 1% acetic acid) is added to each microtiter well and incubated for 10 minutes at room temperature. Unbound SRB is removed by washing with 1% acetic acid. Plates are air dried and bound stain is solubilized with Tris buffer. Optical densities are read on a automated spectrophotometric plate reader at a single wavelength of 490 nm.
# (§7) The values for mean+/−SD of data from triplicate wells are calculated. Some parameters for cellular responses can be calculated: GI=growth inhibition, TGI=total growth inhibition (cytostatic effect) and LC=cell killing (cytotoxic effect).
# (§8) Obtained results may predict the usefulness of a certain drug as a potential cancer treatment. For this technique, compounds which show GI50 values smaller than 10 μg/ml are selected to continue with further studies. GI50's data allow to predict that not only could a drug be cystostatic, but also it could have a potential in terms of tumor reduction.
# DU-145 = assay: Inhibition of cells growth by colorimetric assay (SRB), DU-145; assay type: cell-based; conditions: for GI50 / CC50: Homo sapiens, DU-145, 48 h
# In short: as §1
# MCF-7 = assay: Inhibition of cells growth by colorimetric assay (SRB), MCF-7; assay type: cell-based; conditions: for CC50 / GI50: Homo sapiens; for CC50: MCF7, 48 h; for GI50: MCF7
# Description: as §2, §3, §4, §5, §6, §7, §8
# MDA-MB-231 = assay: Inhibition of cells growth by colorimetric assay (SRB), MDA-MB-231; assay type: cell-based; conditions: for CC50 / GI50: Homo sapiens; for CC50: MDA-MB-231, 48 h; for GI50: MDA-MB-231
# Description: as §2, §3, §4, §5, §6, §7, §8
# A-498 = assay: Inhibition of cells growth by colorimetric assay (SRB), A-498; assay type: cell-based; conditions: for LC50 / GI50: Homo sapiens; for LC50: A498, 48 h; for GI50: A498
# Description: as §2, §3, §4, §5, §6, §7, §8
# [1] = A-549, SRB, 48 hours exposure, read-out: GI50 A-549
# [2] = read-out: LC50 A-549, A-549, SRB, 48 hours exposure
# [3] = MEL-28, SRB, 48 hours exposure, read-out: GI50 MEL-28
# [4] = read-out: LC50 MEL-28, MEL-28, SRB, 48 hours exposure
# [5] = HT-29, SRB, 48 hours exposure, read-out: GI50 HT-29
# [6] = read-out: LC50 HT-29, HT-29, SRB, 48 hours exposure
# [7] = SRB, 48 hours exposure, read-out: GI50 SW-620
# [8] = DU-145, SRB, 48 hours exposure, read-out: GI50 DU-145
# [9] = read-out: LC50 DU-145, DU-145, SRB, 48 hours exposure
# [10] = MCF, SRB, 48 hours exposure, read-out: GI50 MCF
# [11] = MB-231, SRB, 48 hours exposure, read-out: GI50 MB-231
# [12] = A-498, SRB, 48 hours exposure, read-out: GI50 A-498
# Description for Heart: (§9) Toxicity was asssessed by the methods reported in Toxicology in Vitro, 15 (2001) 571-577, J. Luber Narod et al.: “Evaluation of the use of in vitro methodolodies as tools for screening new compounds for potential in vivo toxicity”.
# Description for Kidney: as §9
# Description for Liver: as §9
# Description for Myelo: as §9
# Description for Skeletal: as §9
smiles,measurement,setting,value
COc1cc2c(cc1OC(=O)CCc1ccccc1)CCN[C@]21CS[C@@H]2c3c(OC(C)=O)c(C)c4c(c3[C@H](COC1=O)N1C2[C@H]2c3c(cc(C)c(OC)c3O)C[C@@H]([C@@H]1O)N2C)OCO4 (some centres unmarked) [Compound 72],TGI A-549,"A-549; A-549, SRB, 48 hours exposure",3.36E-09
same,GI50,A-549; [1],1.12 nM
same,LC50 (concentration for 50% cell killing),A-549; [2],7.83 nM
same,GI50,SK-MEL-28; [3],2.24 nM
same,CC50,SK-MEL-28; [4],7.83 nM
same,TGI MEL-28,"SK-MEL-28; MEL-28, SRB, 48 hours exposure",3.36E-09
same,TGI HT-29,"HT-29; HT-29, SRB, 48 hours exposure",7.83E-09
same,GI50,HT-29; [5],2.24 nM
same,LC50 (concentration for 50% cell killing),HT-29; [6],11.2 nM
same,LC50,SW620; read-out: LC50 SW-620,11.2 nM
same,GI50,SW620; [7],2.24 nM
same,TGI SW-620,"SW620; SRB, 48 hours exposure",3.36E-09
same,TGI DU-145,"DU-145; DU-145, SRB, 48 hours exposure",3.36E-09
same,GI50,DU-145; [8],2.24 nM
same,CC50,DU-145; [9],8.95 nM
same,CC50,MCF-7; read-out: LC50 MCF,11.2 nM
same,GI50,MCF-7; [10],2.24 nM
same,TGI MCF,"MCF-7; MCF, SRB, 48 hours exposure",4.47E-09
same,CC50,MDA-MB-231; read-out: LC50 MB-231,11.2 nM
same,GI50,MDA-MB-231; [11],2.24 nM
same,TGI MB-231,"MDA-MB-231; MB-231, SRB, 48 hours exposure",3.36E-09
same,TGI A-498,"A-498; A-498, SRB, 48 hours exposure",4.47E-09
same,LC50,A-498; read-out: LC50 A-498,11.2 nM
same,GI50,A-498; [12],2.24 nM
same,Toxicity Data Liver,Liver,1.55E-08
same,Toxicity Data Heart,Heart,3.78E-08
same,Toxicity Data Myelo,Myelo,2.15E-08
same,Toxicity Data Skeletal,Skeletal,1.32E-08
same,Toxicity Data Kidney,Kidney,1.85E-08
COc1cc2c(cc1OC(=O)CCCl)CCN[C@]21CS[C@@H]2c3c(OC(C)=O)c(C)c4c(c3[C@H](COC1=O)N1C2[C@H]2c3c(cc(C)c(OC)c3O)C[C@@H]([C@@H]1O)N2C)OCO4 (some centres unmarked) [Compound 73],TGI A-549,"A-549; A-549, SRB, 48 hours exposure",2.35E-09
same,GI50,A-549; [1],0.352 nM
same,LC50 (concentration for 50% cell killing),A-549; [2],5.87 nM
same,GI50,SK-MEL-28; [3],0.822 nM
same,CC50,SK-MEL-28; [4],3.52 nM
same,TGI MEL-28,"SK-MEL-28; MEL-28, SRB, 48 hours exposure",9.39E-10
same,TGI HT-29,"HT-29; HT-29, SRB, 48 hours exposure",7.04E-09
same,GI50,HT-29; [5],0.939 nM
same,LC50 (concentration for 50% cell killing),HT-29; [6],10.6 nM
same,LC50,SW620; read-out: LC50 SW-620,9.39 nM
same,GI50,SW620; [7],0.352 nM
same,TGI SW-620,"SW620; SRB, 48 hours exposure",1.17E-09
same,TGI DU-145,"DU-145; DU-145, SRB, 48 hours exposure",3.52E-10
same,GI50,DU-145; [8],0.235 nM
same,CC50,DU-145; [9],0.939 nM
same,CC50,MCF-7; read-out: LC50 MCF,11.7 nM
same,GI50,MCF-7; [10],0.704 nM
same,TGI MCF,"MCF-7; MCF, SRB, 48 hours exposure",3.52E-09
same,CC50,MDA-MB-231; read-out: LC50 MB-231,1.17 nM
same,GI50,MDA-MB-231; [11],0.235 nM
same,TGI MB-231,"MDA-MB-231; MB-231, SRB, 48 hours exposure",4.69E-11
same,TGI A-498,"A-498; A-498, SRB, 48 hours exposure",7.04E-10
same,LC50,A-498; read-out: LC50 A-498,3.52 nM
same,GI50,A-498; [12],0.352 nM
COc1cc2c(cc1O)CCN(C)[C@]21CS[C@@H]2c3c(OC(C)=O)c(C)c4c(c3[C@H](COC1=O)N1C2[C@@H]2N[C@@H](Cc3cc(C)c(OC)c(O)c32)[C@@H]1C#N)OCO4 (some centres unmarked) [Compound 209],GI50,"A-549; SRB assay, 48 hours exposure, read-out: A-549 GI50",0.0909 nM
same,LC50 (concentration for 50% cell killing),"A-549; read-out: A-549 LC50, SRB assay, 48 hours exposure",1.17 nM
same,A-549 TGI,"A-549; SRB assay, 48 hours exposure",3.90E-10
same,GI50,"SK-MEL-28; SRB assay, 48 hours exposure, read-out: MEL-28 GI50",0.0649 nM
same,CC50,"SK-MEL-28; read-out: MEL-28 LC50, SRB assay, 48 hours exposure",1.3 nM
same,MEL-28 TGI,"SK-MEL-28; SRB assay, 48 hours exposure",2.60E-10
same,GI50,"HT-29; SRB assay, 48 hours exposure, read-out: HT-29 GI50",0.0779 nM
same,LC50 (concentration for 50% cell killing),"HT-29; read-out: HT-29 LC50, SRB assay, 48 hours exposure",1.17 nM
same,HT-29 TGI,"HT-29; SRB assay, 48 hours exposure",3.90E-10
same,LC50,SW620; read-out: SW-620 LC50,1.3 nM
same,GI50,"SW620; SRB assay, 48 hours exposure, read-out: SW-620 GI50",0.0779 nM
same,SW-620 TGI,"SW620; SRB assay, 48 hours exposure",3.90E-10
same,GI50,"DU-145; SRB assay, 48 hours exposure, read-out: DU-145 GI50",0.013 nM
same,CC50,"DU-145; read-out: DU-145 LC50, SRB assay, 48 hours exposure",0.13 nM
same,DU-145 TGI,"DU-145; SRB assay, 48 hours exposure",3.90E-11
same,CC50,MCF-7; read-out: MCF LC50,5.19 nM
same,GI50,"MCF-7; SRB assay, 48 hours exposure, read-out: MCF GI50",0.26 nM
same,MCF TGI,"MCF-7; SRB assay, 48 hours exposure",7.79E-10
same,CC50,MDA-MB-231; read-out: MB-231 LC50,1.3 nM
same,GI50,"MDA-MB-231; SRB assay, 48 hours exposure, read-out: MB-231 GI50",0.013 nM
same,MB-231 TGI,"MDA-MB-231; SRB assay, 48 hours exposure",2.60E-10
same,LC50,A-498; read-out: A-498 LC50,1.3 nM
same,GI50,"A-498; SRB assay, 48 hours exposure, read-out: A-498 GI50",0.13 nM
same,A-498 TGI,"A-498; SRB assay, 48 hours exposure",3.90E-10

# Source: patent US7759345B2, “Antitumoral derivatives of ET-743” (priority 2001, dated 2010)
